Results taken from article PMC9637222, “Autoinducer-2 and bile salts induce c-di-GMP synthesis to repress the T3SS via a T3SS chaperone” (Nature Communications, 2022).
Values joined by “and” are separate entries in the source; they are usually repeats but may differ in a detail not shown here. Equal entries are not always repeated. “Also recorded” adds a separate entry of the source. Where two headings read alike, the source gives them in different places.

Experiments:
YedQ = system: T1, YedQ; assay: In vitro DGC activity assay of YedQ (membrane fractions, HPLC of c-di-GMP); assay type: biochemical, S. Typhimurium; settings: for Effect on DGC activity of YedQ in c-di-GMP synthesis (in words): in vitro, membrane fractions
T1 construct: Preparation of membrane fractions containing full-length YeaJ and YedQ; made in house; host or cells: ΔluxS mutant of E. coli BL21(DE3), membrane fractions

S. Typhimurium [1] = assay: Biofilm formation (crystal violet staining); assay type: cell-based; settings: for Biofilm formation (in words): strain SL1344, individual components of bile salts; for OD590: 1 μM, Fig. 4c
Experimental: Biofilm formation was measured by crystal violet staining. In brief, overnight cultures of S. Typhimurium strains were diluted with fresh LB medium to an OD600 of 0.05, and 200 μl aliquots of the diluted cells were inoculated into each well of a sterile flat-bottomed 96-well polystyrene microtiter plate. After incubation at 37 °C for 24 h without shaking, culture supernatants were removed, and the wells were washed twice with sterilized water. Cells adhering to the wells were then stained with 0.1% (w/v) crystal violet for 15 min, followed by two washes using distilled water to remove unbound dye. […] For swimming motility assay, overnight cultures of S. Typhimurium strains were diluted to an OD600 of 0.5, and 2 μl aliquots of the diluted cells were spotted onto 0.3% tryptone agar (1% tryptone, 0.5% NaCl, and 0.3% Bacto agar [Difco]). Motility halos were measured after the plates were incubated at 37 °C for 12 h.

S. Typhimurium [2] = assay: Cellular c-di-GMP quantification by LC-MS/MS; assay type: cell-based; settings: 1 μM; for c-di-GMP (fmol/107 cells): strain WT(Vector), Fig. 4e; for Change of intracellular c-di-GMP levels (in words): wild-type strain; for Induction of intracellular c-di-GMP levels (in words): ΔyedQ mutant
Experimental: For stimulation with AI-2, the DPD/AI-2 solution was added to the shaking culture at OD600 of 1.3, followed by another 30 min of incubation at 37 °C. For induction by porcine bile salts and individual bile components (Sigma-Aldrich), substances were added to the static culture at OD600 of 1.1, followed by another 30 min of incubation at 37 °C. About 15 ml of culture was centrifuged and the cells were washed twice with phosphate-buffered saline (PBS, pH 7.0). The cell pellets were resuspended in 500 μl of extraction solution (acetonitrile/methanol/water, 40:40:20, v/v/v) and cooled on ice for 15 min. The samples were boiled for 10 min at 95 °C and then cooled again on ice for 15 min. After centrifugation at 20,000×g and 4 °C for 10 min, supernatants were transferred to new tubes on ice. The remaining pellets were used for two more extraction steps with 500 μl of the extraction solution without heating. Pooled supernatants for each sample were lyophilized, and pellets were resolubilized in 200 μl of distilled water. C-di-GMP concentrations were then measured by LC-MS/MS[63] (AB SCIEX QTRAP 6500+ LC-MS/MS System). Intracellular levels of c-di-GMP were normalized to the number of bacterial cells for each sample.

WP_010904779-LBD = biological target: T2, WP_010904779-LBD (Escherichia coli O157:H7, UniProt Q8XB92); assay: biochemical; assay type: binding, EHEC O157:H7; settings: for Binding affinity (in words) / Kd: ITC; for Binding affinity (in words): LBD of the YedQ homolog from EHEC O157:H7
T2 construct: His6 (N, cleaved yes); made in house; host or cells: E. coli BL21(DE3) or its luxS deletion derivative
T2 sequence (Q8XB92 43-357 limits assumed): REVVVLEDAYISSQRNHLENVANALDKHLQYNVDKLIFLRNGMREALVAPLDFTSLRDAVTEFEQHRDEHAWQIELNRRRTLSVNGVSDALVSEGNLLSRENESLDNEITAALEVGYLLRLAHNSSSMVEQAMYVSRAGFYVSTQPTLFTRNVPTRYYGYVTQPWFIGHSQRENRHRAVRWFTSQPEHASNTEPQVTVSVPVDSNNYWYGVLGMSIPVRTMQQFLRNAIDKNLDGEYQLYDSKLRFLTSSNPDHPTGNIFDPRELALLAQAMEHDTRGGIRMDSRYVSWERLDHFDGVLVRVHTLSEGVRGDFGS
Experimental: (§1) ITC measurements were carried out at 20 °C with a Nano ITC Standard Volume isothermal calorimeter (TA Instruments, New Castle, DE) controlled by the ITCRun software. The N-terminal His6 tags of all purified proteins were removed before ITC analysis. For titrations with DPD/AI-2 (Omm Scientific), the tag-free proteins were dialyzed against a Tris buffer (25 mM Tris-HCl, 150 mM NaCl, pH 7.5) and diluted to 70 μM, while DPD/AI-2 was diluted with the same buffer to 700 μM. […] After being degassed, 1 ml of the protein and 250 μl of the ligand solution were added to the sample cell and the syringe, respectively. There were 25 injections per experiment and the stirring speed was 200 rpm. In control experiments, the ligand solution was titrated into the buffer in the sample cell to obtain the heat of dilution. Microcalorimetric data were corrected by subtracting the heats of dilution and fit to the independent binding site model using the NanoAnalyze software.
The binding affinity was evaluated by ITC analysis. ITC data and plots of injected heat for automatic
WP_010904779-LBD are shown in the upper and lower plots, respectively. The binding curves were
corrected for the dilution effects in the finalanalysis.
Kd and binding stoichiometry (n) are presented as mean ± s.d. of three

YedQ-LBD = biological target: T3, YedQ-LBD (Salmonella typhimurium, UniProt Q8ZNT5); assay: biochemical; assay type: binding, S. Typhimurium
T3 construct: the periplasmic LBD (residues 43–357) of YedQ is structurally not well defined; His6 (N, cleaved yes); made in house; host or cells: E. coli BL21(DE3) or its luxS deletion derivative, pET-28a
T3 sequence (Q8ZNT5 43-357): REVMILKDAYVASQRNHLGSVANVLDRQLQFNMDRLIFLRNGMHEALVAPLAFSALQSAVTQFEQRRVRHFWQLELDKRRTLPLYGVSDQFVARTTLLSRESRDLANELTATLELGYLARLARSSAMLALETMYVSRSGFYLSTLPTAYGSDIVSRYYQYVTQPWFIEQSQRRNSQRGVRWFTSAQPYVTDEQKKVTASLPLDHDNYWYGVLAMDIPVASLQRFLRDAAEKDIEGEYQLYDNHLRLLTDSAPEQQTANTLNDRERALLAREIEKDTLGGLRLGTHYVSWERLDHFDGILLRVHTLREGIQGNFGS
Experimental: as §1

SicA = biological target: T4, SicA (Salmonella typhimurium, UniProt P69066); assay: ITC: nucleotide (c-di-GMP, c-di-AMP, cGMP) binding to SicA; set-up: species or system S. Typhimurium; settings: same experimental conditions as c-di-GMP
T4 construct: His6 (N, cleaved yes); made in house; host or cells: E. coli BL21(DE3), pET-28a (pET28a-sicA)
T4 sequence (P69066 whole entry): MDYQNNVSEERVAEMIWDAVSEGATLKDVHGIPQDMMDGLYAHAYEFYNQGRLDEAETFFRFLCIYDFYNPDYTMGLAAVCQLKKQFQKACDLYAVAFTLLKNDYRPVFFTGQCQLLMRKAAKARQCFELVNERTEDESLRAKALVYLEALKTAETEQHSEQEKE

YedQ-LBD L288A = YedQ-LBD L288A (Salmonella typhimurium, UniProt Q8ZNT5, L288A); assay: biochemical
Chain of YedQ-LBD L288A (Q8ZNT5 43-357 L288A): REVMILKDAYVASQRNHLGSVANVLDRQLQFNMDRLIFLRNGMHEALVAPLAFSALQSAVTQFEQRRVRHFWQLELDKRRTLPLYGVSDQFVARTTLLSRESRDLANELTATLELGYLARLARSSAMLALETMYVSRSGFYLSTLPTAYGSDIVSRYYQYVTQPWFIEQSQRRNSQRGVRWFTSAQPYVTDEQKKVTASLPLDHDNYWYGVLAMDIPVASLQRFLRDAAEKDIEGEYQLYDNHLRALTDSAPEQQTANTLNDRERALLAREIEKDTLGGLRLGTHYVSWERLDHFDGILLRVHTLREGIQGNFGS
Experimental: as §1
(§2) The binding affinitywas evaluated using ITC analysis. ITC data and plots of injected heat for injections
(§3) binding curves were corrected for the dilution effects in the final analysis.
(§4) The Kd and binding stoichiometry
(§5) (n)values were presented as mean ± s.d. of three independent experiments. Source data are provided

YedQ-LBD Q264A = YedQ-LBD Q264A (Salmonella typhimurium, UniProt Q8ZNT5, Q264A); assay: biochemical
Chain of YedQ-LBD Q264A (Q8ZNT5 43-357 Q264A): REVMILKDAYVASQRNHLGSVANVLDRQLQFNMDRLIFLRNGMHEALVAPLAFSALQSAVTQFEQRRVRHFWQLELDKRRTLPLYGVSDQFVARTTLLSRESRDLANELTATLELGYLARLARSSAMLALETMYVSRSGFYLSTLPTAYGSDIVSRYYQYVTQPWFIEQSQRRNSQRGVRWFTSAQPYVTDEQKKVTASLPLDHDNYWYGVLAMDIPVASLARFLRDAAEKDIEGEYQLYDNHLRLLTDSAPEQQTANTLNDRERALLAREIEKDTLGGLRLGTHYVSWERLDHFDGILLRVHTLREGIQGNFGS
Experimental: as §1, §2, §3, §4, §5

YedQ-LBD D233A = YedQ-LBD D233A (Salmonella typhimurium, UniProt Q8ZNT5, D233A); assay: biochemical
Chain of YedQ-LBD D233A (Q8ZNT5 43-357 D233A): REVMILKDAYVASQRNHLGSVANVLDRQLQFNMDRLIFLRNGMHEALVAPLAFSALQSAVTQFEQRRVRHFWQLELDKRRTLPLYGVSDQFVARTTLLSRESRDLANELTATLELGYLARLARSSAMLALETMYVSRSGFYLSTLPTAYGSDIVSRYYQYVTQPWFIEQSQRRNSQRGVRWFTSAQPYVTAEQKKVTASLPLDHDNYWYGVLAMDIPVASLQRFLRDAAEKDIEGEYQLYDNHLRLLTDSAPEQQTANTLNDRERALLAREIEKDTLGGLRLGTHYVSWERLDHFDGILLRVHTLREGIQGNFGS
Experimental: as §1, §2, §3, §4, §5

YedQ-LBD L289A = YedQ-LBD L289A (Salmonella typhimurium, UniProt Q8ZNT5, L289A); assay: biochemical
Chain of YedQ-LBD L289A (Q8ZNT5 43-357 L289A): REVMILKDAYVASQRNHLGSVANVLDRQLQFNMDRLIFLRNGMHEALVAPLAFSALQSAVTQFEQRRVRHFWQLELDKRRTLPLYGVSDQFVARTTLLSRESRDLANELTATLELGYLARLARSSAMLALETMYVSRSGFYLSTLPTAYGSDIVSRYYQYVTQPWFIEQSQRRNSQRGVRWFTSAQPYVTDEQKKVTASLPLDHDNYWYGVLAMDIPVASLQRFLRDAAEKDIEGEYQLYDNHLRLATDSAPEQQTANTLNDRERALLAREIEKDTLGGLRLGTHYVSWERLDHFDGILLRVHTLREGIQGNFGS
Experimental: as §1, §2, §3, §4, §5

YedQ-LBD K236A = YedQ-LBD K236A (Salmonella typhimurium, UniProt Q8ZNT5, K236A); assay: biochemical
Chain of YedQ-LBD K236A (Q8ZNT5 43-357 K236A): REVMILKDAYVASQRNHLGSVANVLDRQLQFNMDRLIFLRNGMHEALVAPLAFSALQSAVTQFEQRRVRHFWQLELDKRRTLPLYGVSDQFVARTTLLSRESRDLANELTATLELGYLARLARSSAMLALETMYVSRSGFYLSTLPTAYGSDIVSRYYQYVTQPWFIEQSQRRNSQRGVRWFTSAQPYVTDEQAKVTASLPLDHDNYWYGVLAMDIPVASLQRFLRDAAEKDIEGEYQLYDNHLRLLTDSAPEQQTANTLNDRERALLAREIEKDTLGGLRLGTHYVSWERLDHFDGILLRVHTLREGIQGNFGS
Experimental: as §1, §2, §3, §4, §5

SMILES | Concentration of c-di-GMP (YedQ; 100 μM, 30 min) | Concentration of c-di-GMP (YedQ; 100 μM, 60 min) | Concentration of c-di-GMP (YedQ; 200 μM, 30 min) | Concentration of c-di-GMP (YedQ; 200 μM, 60 min) | Effect on DGC activity of YedQ in c-di-GMP synthesis (in words) (YedQ) | Biofilm formation (in words) (S. Typhimurium [1]) | c-di-GMP (fmol/107 cells) (S. Typhimurium [2]) | Change of intracellular c-di-GMP levels (in words) (S. Typhimurium [2]) | Induction of intracellular c-di-GMP levels (in words) (S. Typhimurium [2]) | Binding affinity (in words) (WP_010904779-LBD) | OD590 (S. Typhimurium [1]) | Binding to SicA (in words) (SicA) | also measured
C[C@H](CCC(=O)NCCS(=O)(=O)O)[C@H]1CC[C@H]2[C@@H]3CC[C@@H]4C[C@H](O)CC[C@]4(C)[C@H]3C[C@H](O)[C@]12C [taurodeoxycholate] | 22.89 µM and 24.25 µM and 23.52 µM | 34.75 µM and 35.42 µM and 35.31 µM | 37.84 µM and 36.56 µM and 37.20 µM | 46.63 µM and 47.86 µM and 45.57 µM | induce the DGC activity | significantly stimulated biofilm formation | 78.56 fmol/107 cells and 82.79 fmol/107 cells and 79.80 fmol/107 cells | significant increase | completely abolished | high binding; also recorded: high affinity | – | – | n, Taurodeoxycholate binding to WP_010904779-LBD (WP_010904779-LBD; ITC binding stoichiometry n, individual replicates, Supplementary Figure 24b): 1.13 and 1.09 and 1.12; Kd (WP_010904779-LBD; Taurodeoxycholate binding to WP_010904779-LBD, individual replicates, Supplementary Figure 24b): 0.13 µM and 0.17 µM and 0.19 µM; Kd (YedQ-LBD; ITC, YedQ-LBD WT, mean ± s.d. of three independent experiments, read-out: Kd): 0.14 ± 0.02 µM; Kd (YedQ-LBD; binding to YedQ-LBD (WT), read-out: Kd): 0.15 µM and 0.17 µM and 0.11 µM
C[C@H](CCC(=O)NCC(=O)O)[C@H]1CC[C@H]2[C@@H]3[C@H](O)C[C@@H]4C[C@H](O)CC[C@]4(C)[C@H]3C[C@H](O)[C@]12C [Glycocholate] | – | – | – | – | – | – | – | – | – | – | 2.14 | – | –
C[C@H](CCC(=O)O)[C@H]1CC[C@H]2[C@@H]3[C@H](O)C[C@@H]4C[C@H](O)CC[C@]4(C)[C@H]3C[C@H](O)[C@]12C [Cholate] | – | – | – | – | – | – | – | – | – | – | 2.29 and 2.20 and 2.14 | – | –
Nc1ncnc2c1ncn2[C@@H]1O[C@@H]2COP(=O)(O)O[C@H]3[C@@H](O)[C@H](n4cnc5c(N)ncnc54)O[C@@H]3COP(=O)(O)O[C@H]2[C@H]1O [c-di-AMP] | – | – | – | – | – | – | – | – | – | – | – | no binding | –
Nc1nc2c(ncn2[C@@H]2O[C@@H]3COP(=O)(O)O[C@H]3[C@H]2O)c(=O)[nH]1 [cGMP] | – | – | – | – | – | – | – | – | – | – | – | no binding | –
C[C@H](CCC(=O)NCCS(=O)(=O)O)[C@H]1CC[C@H]2[C@@H]3[C@H](O)C[C@@H]4C[C@H](O)CC[C@]4(C)[C@H]3C[C@H](O)[C@]12C [taurocholate] | 22.83 µM and 22.66 µM and 23.00 µM | 34.84 µM and 35.29 µM and 36.56 µM | 39.61 µM and 38.40 µM and 39.33 µM | 45.78 µM and 46.73 µM and 45.87 µM | induce the DGC activity | significantly stimulated biofilm formation | 57.59 fmol/107 cells and 62.54 fmol/107 cells and 56.52 fmol/107 cells | significant increase | completely abolished | high binding; also recorded: high affinity | – | – | n, Taurocholate binding to YedQ-LBDL288A (YedQ-LBD L288A; ITC binding stoichiometry n, individual replicates, Supplementary Figure 11d): 1.10 and 1.02 and 1.07; Kd (YedQ-LBD L288A; Kd (μM), binding to YedQ-LBD L288A): 18 µM and 21 µM and 24 µM; n, Taurocholate binding to YedQ-LBDQ264A (YedQ-LBD Q264A; ITC binding stoichiometry n, individual replicates, Supplementary Figure 11c): 1.07 and 1.18 and 1.00; Kd (YedQ-LBD Q264A; Kd (μM), binding to YedQ-LBD Q264A): 14 µM and 12 µM and 15 µM; Kd (YedQ-LBD D233A; Binding affinity Kd (μM), ITC, YedQ-LBD D233A, mean ± s.d.): 18 ± 1 µM; n, Taurocholate binding to YedQ-LBDD233A (YedQ-LBD D233A; ITC binding stoichiometry n, individual replicates, Supplementary Figure 11a): 1.11 and 1.16 and 1.13; Kd (YedQ-LBD D233A; Kd (μM), binding to YedQ-LBD D233A): 18 µM and 16 µM; Kd (YedQ-LBD D233A; Kd, Taurocholate binding to YedQ-LBDD233A, ITC, individual replicates, Supplementary Figure 11a): 18 µM; n, Taurocholate binding to YedQ-LBDL289A (YedQ-LBD L289A; ITC binding stoichiometry n, individual replicates, Supplementary Figure 11e): 1.18 and 1.14 and 1.16; Kd (YedQ-LBD L289A; Kd (μM), binding to YedQ-LBD L289A): 7.7 µM and 6.8 µM and 7.2 µM; Kd (YedQ-LBD K236A; Binding affinity Kd (μM), ITC, YedQ-LBD K236A, mean ± s.d.): 27 ± 2 µM; n, Taurocholate binding to YedQ-LBDK236A (YedQ-LBD K236A; ITC binding stoichiometry n, individual replicates, Supplementary Figure 11b): 1.04 and 1.09 and 1.01; Kd (YedQ-LBD K236A; Kd (μM), binding to YedQ-LBD K236A): 24 µM and 26 µM and 30 µM; n, Taurocholate binding to WP_010904779-LBD (WP_010904779-LBD; ITC binding stoichiometry n, individual replicates, Supplementary Figure 24a): 1.06 and 1.08 and 1.12; Kd (WP_010904779-LBD; Taurocholate binding to WP_010904779-LBD, individual replicates, Supplementary Figure 24a): 0.19 µM and 0.22 µM and 0.23 µM; Kd (YedQ-LBD; Kd (μM), binding to YedQ-LBD (WT)): 0.2 µM and 0.13 µM and 0.16 µM; Kd (YedQ-LBD; Kd, ITC, YedQ-LBD WT, mean ± s.d. of three independent experiments): 0.17 ± 0.03 µM
